Reference: the supplement of paper PMC4862054

Assays:
Settings in all cases: incubation time: 72 h
DU-4475 [1] = assay: normalised response (% of control), CellTiter-Glo; higher = more viable cells (100 = DMSO, 0 = benzethonium chloride kill control)
Method in brief: (§1)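 Every value is a normalised signal taken at one concentration of a dilution series. Compound was placed in 384-well plates at 5 concentrations in 10-fold steps over a compound-specific 10,000-fold range, and 20 µl of breast cancer cell suspension was seeded onto it. After 72 h, CellTox Green fluorescence (485/520 nm) was measured first and CellTiter-Glo luminescence second, following 10 min at room temperature. Each plate was scaled to 0.1 % DMSO (100) and a positive kill control (0).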

HCC1599 [2] = assay: as above
Method in brief: as §1

BT-474 [3] = assay: as above
Method in brief: as §1

MDA-MB-436 [4] = assay: as above
Method in brief: as §1

CAL-85-1 [5] = assay: as above
Method in brief: as §1

DU-4475 [6] = assay: normalised viability (% of control), CellTiter-Blue; higher = more viable cells (about 100 = DMSO control)
Description: (§2)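 DSRT, CellTiter-Blue viability, 72 h incubation. Signal is normalised to DMSO and benzethonium chloride controls. Value is the normalised response at dose 9.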

HDQ-P1 [7] = assay: as above
Description: as §2

CAL-51 [8] = assay: as above
Description: as §2

CAL-148 [9] = assay: as above
Description: as §2

CAL-85-1 [10] = assay: as above
Description: as §2

MDA-MB-453 [11] = assay: as above
Description: as §2

DU-4475 [12] = assay: normalised response (% of control), CellTox Green; higher = less cell death (100 = DMSO, 0 = benzethonium chloride kill control)
Method in brief: as §1

HCC1143 = assay: as above
Method in brief: as §1

MDA-MB-468 = assay: as above
Method in brief: as §1

HCC1599 [13] = assay: as above
Method in brief: as §1

HCC1937 = assay: as above
Method in brief: as §1

HDQ-P1 [14] = assay: as above
Method in brief: as §1

MDA-MB-231 = assay: as above
Method in brief: as §1

MCF-10A = assay: as above
Method in brief: as §1

CAL-120 = assay: as above
Method in brief: as §1

CAL-51 [15] = assay: as above
Method in brief: as §1

CAL-148 [16] = assay: as above
Method in brief: as §1

BT-549 = assay: as above
Method in brief: as §1

BT-474 [17] = assay: as above
Method in brief: as §1

MDA-MB-436 [18] = assay: as above
Method in brief: as §1

Hs578T = assay: as above
Method in brief: as §1

MFM-223 = assay: as above
Method in brief: as §1

CAL-85-1 [19] = assay: as above
Method in brief: as §1

MDA-MB-453 [20] = assay: as above
Method in brief: as §1

Row | SMILES | normalised response (DU-4475 [1]) | normalised response (HCC1599 [2]) | normalised response (BT-474 [3]) | normalised response (MDA-MB-436 [4]) | normalised response (CAL-85-1 [5]) | normalised viability (DU-4475 [6]) | normalised viability (HDQ-P1 [7]) | normalised viability (CAL-51 [8]) | normalised viability (CAL-148 [9]) | normalised viability (CAL-85-1 [10]) | normalised viability (MDA-MB-453 [11]) | normalised response (DU-4475 [12]) | normalised response (HCC1143) | normalised response (MDA-MB-468) | normalised response (HCC1599 [13]) | normalised response (HCC1937) | normalised response (HDQ-P1 [14]) | normalised response (MDA-MB-231) | normalised response (MCF-10A) | normalised response (CAL-120) | normalised response (CAL-51 [15]) | normalised response (CAL-148 [16]) | normalised response (BT-549) | normalised response (BT-474 [17]) | normalised response (MDA-MB-436 [18]) | normalised response (Hs578T) | normalised response (MFM-223) | normalised response (CAL-85-1 [19]) | normalised response (MDA-MB-453 [20])
1 | NC1(c2ccc(-c3nc4ccn5c(=O)[nH]nc5c4cc3-c3ccccc3)cc2)CCC1 [MK-2206] (1000 nM) | 87.3% | 72.6% | 95.4% | 98.2% | 86.1% | 53.5% | 86.4% | 45.3% | 36.8% | 58.4% | 11% | 109% | 131% | 147% | 117% | 108% | 109% | 106% | 104% | 97.8% | 98.1% | 11.1% | 122% | 99.2% | 112% | 82.1% | 95.9% | 69% | 96.7%
2 | O=C(c1cc(Cc2n[nH]c(=O)c3ccccc23)ccc1F)N1CCN(C(=O)C2CC2)CC1 [Olaparib] (10000 nM) | 85.7% | 95.3% | 67.5% | 62.2% | 87.5% | 71.7% | 96.5% | 39.3% | 56.1% | 80.7% | 78.1% | 98.5% | 94.2% | 112% | 99.2% | 99.8% | – | 35.9% | 94.8% | 94.8% | 44.8% | 75.3% | 102% | 96.4% | 44% | 96.5% | 102% | 105% | 109%
3 | COc1cc2c(N3CCN(C(=O)Nc4ccc(OC(C)C)cc4)CC3)ncnc2cc1OCCCN1CCCCC1 [Tandutinib] (1000 nM) | 97.7% | 106% | 97.7% | 109% | 98% | 58.4% | 128% | 58% | 71.1% | 93% | 92.9% | 98.6% | 114% | 120% | 100% | 93.2% | 97.1% | 99.1% | 93.5% | 96.2% | 98.5% | 93.5% | 108% | 100% | 86.9% | 122% | 89% | 105% | 101%
4 | C[C@@H](C(=O)O)c1ccc(-c2ccccc2)c(F)c1 [Tarenflurbil] (10000 nM) | 96.7% | 92.4% | 95.2% | 108% | 98.8% | 95.1% | 129% | 111% | 89.9% | 91.4% | 84% | 101% | 121% | 153% | 102% | 109% | 110% | 99.9% | – | 91.1% | 113% | 101% | 101% | 88.4% | 90% | – | 92.6% | 110% | 103%
